Measured values taken from PubChem BioAssay (NCI).
Several values for one entry are separate records, joined by “and”; a condition that tells them apart may be missing. Identical values can stand only once.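 Abbreviation: GI50, concentration required for 50% inhibition of growth. TGI: concentration producing complete growth inhibition.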

Key:
Experiment in all cases: NCI tumour cell line growth inhibition, 384-well format
HCT-15 colon = system: HCT-15 colon
CCRF-CEM leukemia = system: CCRF-CEM leukemia
RPMI-8226 leukemia = system: RPMI-8226 leukemia
CAKI-1 renal = system: CAKI-1 renal
SF-539 CNS = system: SF-539 CNS
NCI-H322M lung = system: NCI-H322M lung
DU-145 prostate = system: DU-145 prostate
UO-31 renal = system: UO-31 renal
NCI-H23 lung = system: NCI-H23 lung
HOP-92 NSCLC = system: HOP-92 NSCLC
RXF 393 renal = system: RXF 393 renal
OVCAR-5 ovarian = system: OVCAR-5 ovarian
MCF7 breast = system: MCF7 breast
M14 melanoma = system: M14 melanoma
SK-MEL-5 melanoma = system: SK-MEL-5 melanoma
BT-549 breast = system: BT-549 breast
NCI/ADR-RES ovarian = system: NCI/ADR-RES ovarian
MDA-MB-231 breast = system: MDA-MB-231 breast
SK-OV-3 ovarian = system: SK-OV-3 ovarian
HOP-62 NSCLC = system: HOP-62 NSCLC
IGROV1 ovarian = system: IGROV1 ovarian
OVCAR-4 ovarian = system: OVCAR-4 ovarian
A498 renal = system: A498 renal
NCI-H226 lung = system: NCI-H226 lung
SNB-19 CNS = system: SNB-19 CNS
A549 NSCLC = system: A549 NSCLC
TK-10 renal = system: TK-10 renal
HCT-116 colon = system: HCT-116 colon
PC-3 prostate = system: PC-3 prostate

SMILES: CNC(=O)c1ccc(Nc2ncc(C(F)(F)F)c(NCc3nccnc3N(C)S(C)(=O)=O)n2)cc1
- GI50 (HCT-15 colon): 1.84 µM and 2.79 µM
- TGI (HCT-15 colon): 5.7 µM and 8.92 µM
- GI50 (CCRF-CEM leukemia): 1.71 µM and 2.1 µM
- TGI (CCRF-CEM leukemia): 3.28 µM and 3.73 µM
- GI50 (RPMI-8226 leukemia): 1.81 µM and 2.26 µM
- TGI (RPMI-8226 leukemia): 3.21 µM and 3.75 µM
- GI50 (CAKI-1 renal): 1.3 µM and 1.48 µM
- TGI (CAKI-1 renal): 4.51 µM and 4.9 µM
- GI50 (SF-539 CNS): 1.55 µM and 1.95 µM
- TGI (SF-539 CNS): 3.29 µM and 3.85 µM
- GI50 (NCI-H322M lung): 2.04 µM and 2.2 µM
- TGI (NCI-H322M lung): 5.32 µM and 6 µM
- GI50 (DU-145 prostate): 1.71 µM and 2.2 µM
- TGI (DU-145 prostate): 10.7 µM and 11.1 µM
- GI50 (UO-31 renal): 1.82 µM and 1.98 µM
- TGI (UO-31 renal): 4.84 µM and 4.75 µM
- GI50 (NCI-H23 lung): 1.59 µM and 1.74 µM
- TGI (NCI-H23 lung): 3.17 µM and 3.43 µM
- GI50 (HOP-92 NSCLC): 2.21 µM and 2.54 µM
- TGI (HOP-92 NSCLC): 6.44 µM and 6.5 µM
- GI50 (RXF 393 renal): 1.15 µM and 1.17 µM
- TGI (RXF 393 renal): 2.71 µM and 2.73 µM
- GI50 (OVCAR-5 ovarian): 2.14 µM and 2.41 µM
- TGI (OVCAR-5 ovarian): 6.77 µM and 7.25 µM
- GI50 (MCF7 breast): 2.21 µM and 1.9 µM
- TGI (MCF7 breast): 7.68 µM and 5.85 µM
- GI50 (M14 melanoma): 1.29 µM and 1.53 µM
- TGI (M14 melanoma): 3.78 µM and 4.15 µM
- GI50 (SK-MEL-5 melanoma): 1.34 µM and 1.25 µM
- TGI (SK-MEL-5 melanoma): 2.69 µM and 2.64 µM
- GI50 (BT-549 breast): 1.58 µM and 1.99 µM
- TGI (BT-549 breast): 3.4 µM and 4.08 µM
- GI50 (NCI/ADR-RES ovarian): 13.5 µM and 16 µM
- TGI (NCI/ADR-RES ovarian): 40.5 µM and 35.5 µM
- GI50 (MDA-MB-231 breast): 2.38 µM and 3.04 µM
- TGI (MDA-MB-231 breast): 11.7 µM and 14.6 µM
- GI50 (SK-OV-3 ovarian): 1.31 µM and 1.77 µM
- TGI (SK-OV-3 ovarian): 5.3 µM and 9.75 µM
- GI50 (HOP-62 NSCLC): 2.04 µM and 2.11 µM
- TGI (HOP-62 NSCLC): 6.31 µM and 7.25 µM
- GI50 (IGROV1 ovarian): 0.558 µM and 0.673 µM
- TGI (IGROV1 ovarian): 5.91 µM and 8.38 µM
- GI50 (OVCAR-4 ovarian): 2.31 µM and 3.19 µM
- TGI (OVCAR-4 ovarian): 10.2 µM and 14.1 µM
- GI50 (A498 renal): 1.08 µM and 1.35 µM
- TGI (A498 renal): 4.63 µM and 5.83 µM
- GI50 (NCI-H226 lung): 2.05 µM
- TGI (NCI-H226 lung): 11.9 µM and 7.96 µM
- GI50 (SNB-19 CNS): 3.05 µM and 3.92 µM
- TGI (SNB-19 CNS): 13.3 µM and 12.4 µM
- GI50 (A549 NSCLC): 2.35 µM and 2.24 µM
- TGI (A549 NSCLC): 6.47 µM and 6.06 µM
- GI50 (TK-10 renal): 1.77 µM and 2.24 µM
- TGI (TK-10 renal): 5.22 µM and 6.82 µM
- GI50 (HCT-116 colon): 1.75 µM and 1.94 µM
- TGI (HCT-116 colon): 6.22 µM and 4.86 µM
- GI50 (PC-3 prostate): 2.11 µM and 3.35 µM
- TGI (PC-3 prostate): 6.15 µM and 10.7 µM
